# Measurements taken from patent publication US7906486B2, “Method of treating or preventing tissue deterioration, injury or damage due to disease of mucosa” (SciClone Pharmaceuticals, Inc., priority 2007, dated 2011).
# Test system: oral mucositis induced by fractionated radiation (eight doses of 7.5 Gy, left buccal cheek pouch)
# Assay: Oral mucositis induced by fractionated radiation in hamsters, mucositis scoring (Example 3, SCI-03)
# Format: in vivo, Syrian Golden Hamsters
# Conditions: for % Days >=3 / Days <3 / Days >=3 / Chi Sq v control: 100 ug/kg, qd; for Days >=3: animal days with mucositis score of three or more; for Chi Sq v control: days with score >=3
# Excerpt: The fractionated radiation model in hamsters, developed by the Principal Investigator, has proven to be an accurate, efficient and cost-effective technique to provide a preliminary evaluation of anti-mucositis compounds. In this model, hamsters receive 8 doses of 7.5 Gy to the left cheek pouch on days 0, 1, 2, 3, […], rather than the single dose of 40 Gy on day 0 that is used in acute radiation studies. The rationale for using this scheduling for the radiation is that it more closely resembles the clinical courses of radiotherapy given to cancer patients. The course of mucositis in this model is well defined and results in peak mucositis scores approximately 14-16 days following radiation. Mortality (generally from the side effects of anesthesia) in the fractionated radiation model is slightly higher than that seen in the acute radiation model and group sizes are increased (to 10 per group) to allow for this.
# (§1) Forty (40) male Syrian Golden Hamsters were given eight doses of radiation of 7.5 Gy each directed to their left buccal cheek pouch on days 0, 1, 2, 3, 6, 7, 8 and 9. This was accomplished by anesthetizing the animals and everting the left buccal pouch, while protecting the rest of the animal's bodies with a lead shield. Test materials were given by sub-cutaneous injection once daily as detailed in Table 9. Mucositis was evaluated clinically starting on day 7, and continuing on alternate days until day 35. Test articles were given as outlined Table 9, Groups 1 and 2 were dosed from Day −1 to Day 29, Group 3 was dosed on the days of radiation only, Group 4 was dosed on the days between Day −15 and Day 29 on which no radiation is given (Day −1, Day 4, Day 5 and Day 10 to Day 29).
# The effect on mucositis of each drug treatment compared to placebo was assessed according to the following parameters:
# On each evaluation day, the number of animals with a blinded mucositis score of ≧3 in each drug treatment group was compared to the control group. Differences were compared on a cumulative basis and statistical significance was determined by chi-square analysis. Efficacy, in this analysis, is defined by a significant reduction in the number of days that a group of animals had ulcerations (scores ≧3) when compared to the control group.
# For each evaluation day the scores of the control group were compared to those of the treated groups using non-parametric rank sum analysis. Treatment success was considered as a statistically significant lowering of scores in the treated group on 2 or more days from day 6 to day 28.
# as §1, with “daily at 8:00 am” for “daily”, “9. […]” for “9. Mucositis was evaluated clinically starting on day 7, and continuing on alternate days until day 35.”, “2 was” for “2 were”, “radiation only (days 0-3 and days 6-10),” for “radiation only,”, “Day −1” for “Day −15”, “Day 4 to” for “Day 4,”
# Radiation was generated with a Philips 160 kVp (kilovolt potential) (18.75-ma) X-ray source at a focal distance of 30 cm, with a 3.0 mm hardened Al filtration system. Irradiation was targeted to the left buccal pouch mucosa at a rate of 3.32 Gy/minute. […] Using this calibration, the energy received by each animal at each radiation dose was approximately 64.5 nC (nanoCoulombs) at each time point. Prior to irradiation, animals were anesthetized with an intraperitoneal injection of ketamine (160 mg/kg) and xylazine (8 mg/kg). The left buccal pouch was everted, fixed and isolated using a lead shield.
# The mucositis score, weight change and survival were measured throughout the study as described above. […]
# [1] = 100 ug/kg from day -1 to day 29
# [2] = 100 ug/kg on the days of radiation (0-3 and 6-9)
compound,measurement,setting,value
"N[C@H](CCC(=O)N[C@@H](Cc1c[nH]c2ccccc12)C(=O)O)C(=O)O [SCV-07, γ-D-glutamyl-L-tryptophan]",day of peak mean mucositis score,[1],19
same,peak mean mucositis score,[1],3.3
same,peak mean mucositis score,"100 ug/kg on days 1, 4, 5 and 10 through 29",2.9
same,day of peak mean mucositis score,[2],17
same,peak mean mucositis score,[2],3.0
same,% Days >=3,sc Days 0 to 3 and 6 to 9,24%
same,Days <3,sc Days 0 to 3 and 6 to 9,228
same,% Days >=3,"sc Days -1, 4, 5 10 to 29",30.7%
same,Days <3,"sc Days -1, 4, 5 10 to 29",208
same,% Days >=3,sc Days -1 to 29,32.7%
same,Days <3,sc Days -1 to 29,202
same,Days >=3,sc Days 0 to 3 and 6 to 9,72
same,Days >=3,"sc Days -1, 4, 5 10 to 29",92
same,Days >=3,sc Days -1 to 29,98
same,Chi Sq v control,sc Days 0 to 3 and 6 to 9,0.3160
same,Chi Sq v control,"sc Days -1, 4, 5 10 to 29",0.2300
same,Chi Sq v control,sc Days -1 to 29,0.575
